Assay: Inhibition of human recombinant IMPDH assessed as NADH formation by spectrophotometry; call rule not given here

Row | SMILES | IC50 | IC50 (read-out: IC50)
1 | OCc1cc(O)c(O)c(Br)c1 | Not Active | –
2 | COCc1cc(Br)c(O)c(O)c1Cc1ccc(O)c(Br)c1 [AVRAINVILLEOL METHYL ETHER] | Not Active | –
3 | OCc1cc(Br)c(O)c(O)c1Cc1ccc(O)c(Br)c1 [AVRAINVILLEOL] | – | 18 µM
4 | OCc1c(Cc2ccc(O)c(Br)c2)c(O)c(O)c(Br)c1Cc1cc(Br)c(O)c(O)c1Cc1ccc(O)c(Br)c1 [ISORAWSONOL] | – | 7.4 µM
5 | COCc1cc(Br)c(O)c(O)c1Cc1cc(Br)c(O)c(Cc2cc(Br)c(O)c(O)c2Cc2ccc(O)c(Br)c2)c1 [RAWSONOL] | – | 10 µM
